From US8304391B2 (Affymax, Inc., priority 2003, dated 2012)
Bridges are numbered along the chain shown (N, C = ends). Roman numbers before positions name the chains, in order. Where no end group is shown, it is not given here. [ ]: non-standard residue; d: D form. The star is where a group is joined. ξ: configuration not given here. 1Nal = N[C@@H](Cc1cccc2ccccc12)C(=O)O; NH(CH2CH2O)2CH2CH2NH2 = NCCOCCOCCN*; hSer = N[C@@H](CCO)C(=O)O; ξK = NCCCCC(N)C(=O)O; Ahx = NCCCCCC(=O)O; Sar = CNCC(=O)O

Key:
human EPO-R = target: T1, human EPO-R (Homo sapiens, UniProt P19235); experiment: Proliferation assay (BaF3/Gal4/Elk/EPOR cells, MTT); assay type: cell-based; settings: 48 h
T1 construct: expressed in transfected cells; host or cells: murine pre-B-cell line Baf3 (BaF3/Gal4/Elk/EPOR)
T1 sequence (P19235 25-508): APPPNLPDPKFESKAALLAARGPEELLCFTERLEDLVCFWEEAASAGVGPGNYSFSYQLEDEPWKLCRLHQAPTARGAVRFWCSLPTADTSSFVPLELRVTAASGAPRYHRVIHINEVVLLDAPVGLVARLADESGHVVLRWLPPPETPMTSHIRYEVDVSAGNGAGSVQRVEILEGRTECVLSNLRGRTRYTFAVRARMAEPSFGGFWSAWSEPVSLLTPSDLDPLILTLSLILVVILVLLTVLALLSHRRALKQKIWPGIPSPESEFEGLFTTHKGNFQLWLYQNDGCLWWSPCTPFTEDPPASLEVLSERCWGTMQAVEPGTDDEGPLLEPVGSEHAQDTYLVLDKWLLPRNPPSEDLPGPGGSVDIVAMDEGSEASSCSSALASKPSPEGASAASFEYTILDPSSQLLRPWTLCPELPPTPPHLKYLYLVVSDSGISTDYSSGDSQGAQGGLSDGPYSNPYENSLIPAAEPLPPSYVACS
Protocol: This assay is based upon a murine pre-B-cell line, Baf3, transfected to express human EPO-R. Proliferation of the resulting cell line, BaF3/Gal4/Elk/EPOR, is dependent on EPO-R activation. The degree of cell proliferation is quantitated using MTT, where the signal in the MTT assay is proportional to the number of viable cells.
The BaF3/Ga14/Elk/EPOR cells are cultured in spinner flasks in DMEM/F12 medium (Gibco) supplemented with 10% FBS (Hyclone) and 2% WEHI-3 supernatant (ATCC # TIB-68). Cultured cells are starved overnight, in a spinner flask at a cell density of 1×10^6 cells/ml, in DMEM/F12 medium supplemented with 10% FBS and 0.1% WEHI-3 supernatant. The starved cells are then washed twice with Dulbecco's PBS (Gibco), and resuspended to a density of 1×10^6 cells/ml in DMEM/F12 supplemented with 10% FBS (no WEHI-3 supernatant). 50 μL , aliquots (˜50,000 cells) of the cell suspension are then plated, in triplicate, in 96 well assay plates. […] The plated cells are then incubated for 48 h at 37° C. Next, 10 μL of MTT (Roche Diagnostics) is added to each culture dish well, and then allowed to incubate for 4 h. The reaction is then stopped by adding 10% SDS+0.01N HCl. The plates are then incubated overnight at 37° C. Absorbance of each well at a wavelength of 595 nm is then measured by spectrophotometry. Plots of the absorbance readings versus test peptide concentration are constructed and the EC50 calculated using Graph Pad software. The concentration of test peptide that results in a half-maximal absorbance is recorded as the EC50 [See Table 3: Proliferation EC50].

[1] = test system: human, bone marrow derived CD34+ cells; assay type: cell-based
Description: EPO-R signaling stimulates the differentiation of bone marrow stem cells into proliferating red blood cell precursors. This assay measures the ability of test peptides to stimulate the proliferation and differentiation of red blood cell precursors from primary human bone marrow pluripotent stem cells.
For this assay, serial dilutions of test peptide are made in IMDM medium (Gibco) supplemented with 10% FBS (Hyclone). […] The methylcellulose and peptide mixture is then vortexed thoroughly. Aliquots (100,000 cells/mL) of human, bone marrow derived CD34+ cells (Poietics/Cambrex) are thawed. The thawed cells are gently added to 0.1 mL of 1 mg/ml DNAse (Stem Cells) in a 50 mL tube. Next, 40-50 mL IMDM medium is added gently to cells: the medium is added drop by drop along the side of the 50 mL tube for the first 10 mL, and then the remaining volume of medium is slowly dispensed along the side of the tube. The cells are then spun at 900 rpm for 20 min, and the media removed carefully by gentle aspiration. The cells are resuspended in 1 ml of IMDM medium and the cell density per mL is counted on hemacytometer slide (10 μL aliquot of cell suspension on slide, and cell density is the average count×10,000 cells/mil). The cells are then diluted in IMDM medium to a cell density of 15,000 cells/mL. A 100 μL of diluted cells is then added to each 1.5 mL methyl cellulose plus peptide sample (final cell concentration in assay media is 1000 cells/mL), and the mixture is vortexed. Allow the bubbles in the mixture to disappear, and then aspirate 1 mL using blunt-end needle. Add 0.25 mL aspirated mixture from each sample into each of 4 wells of a 24-well plate (Falcon brand). Incubate the plated mixtures at 37° C. under 5% CO2 in a humid incubator for 14 days. Score for the presence of erythroid colonies using a phase microscope (5×-10× objective, final magnification of 100×).

recombinant EPO-R = target: T2, recombinant EPO-R (Homo sapiens, UniProt P19235); experiment: Competitive binding assay (AQ, bead proximity, tracer AF33068); settings: tracer AF33068 30 nM, 18 hours
T2 construct: made in house; host or cells: Chinese Hamster Ovary cells
T2 sequence (P19235 25-250 limits assumed): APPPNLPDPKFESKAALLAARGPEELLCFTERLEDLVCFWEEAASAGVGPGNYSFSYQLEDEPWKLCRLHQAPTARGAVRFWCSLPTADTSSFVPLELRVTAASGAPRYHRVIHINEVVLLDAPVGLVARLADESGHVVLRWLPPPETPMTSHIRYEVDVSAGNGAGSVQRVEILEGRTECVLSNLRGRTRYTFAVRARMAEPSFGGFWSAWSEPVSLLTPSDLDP
Description: Competitive binding calculations are made using an assay in which a light signal is generated as a function of the proximity of two beads: a streptavidin donor bead bearing a biotinylated EPO-R-binding peptide tracer and an acceptor bead to which is bound EPO-R. Light is generated by non-radiative energy transfer, during which a singlet oxygen is released from a first bead upon illumination, and contact with the released singlet oxygen causes the second bead to emit light. These bead sets are commercially available (Packard). Bead proximity is generated by the binding of the EPO-R-binding peptide tracer to the EPO-R. A test peptide that competes with the EPO-R-binding peptide tracer for binding to EPO-R will prevent this binding, causing a decrease in light emission.
In more detail the method is as follows: Add 4 μL of serial dilutions of the test EPO-R agonist peptide, or positive or negative controls, to wells of a 384 well plate. Thereafter, add 2 μL/well of receptor/bead cocktail. […]
Centrifuge 1 min to mix. […] After 18 hours read light emission using an AlphaQuest reader (Packard). […]

[2] = target: chimeric receptor comprising the extra-cellular portion of the human EPO receptor to the intra-cellular portion of the human GCSF receptor; experiment: Reporter assay (Baf3/EpoR/GCSFR fos/lux luciferase); assay type: cell-based; settings: peptide monomers; Baf3/EpoR/GCSFR fos/lux cells, 4 h
Protocol: One assay is based upon a murine pre-B-cell line expressing human EPO-R and further transfected with a fos promoter-driven luciferase reporter gene construct. Upon exposure to EPO or another EPO-R agonist, such cells respond by synthesizing luciferase. Luciferase causes the emission of light upon addition of its substrate luciferin. Thus, the level of EPO-R activation in such cells may be quantitated via measurement of luciferase activity. The activity of a test peptide is measured by adding serial dilutions of the test peptide to the cells, which are then incubated for 4 hours. After incubation, luciferin substrate is added to the cells, and light emission is measured. The concentration of test peptide that results in a half-maximal emission of light is recorded as the EC50.
This assay is based upon a on a murine pre-B-cell line derived reporter cell, Baf3/EpoR/GCSFR fos/lux. […] Thus, the level of EPO-R activation in such cells may be quantitated via measurement of luciferase activity.
The Baf3/EpoR/GCSFR fos/lux cells are cultured in DMEM/F12 medium (Gibco) supplemented with 10% fetal bovine serum (FBS; Hyclone), 10% WEHI-3 supernatant (the supernatant from a culture of WEHI-3 cells, ATCC # TIB-68), and penicillin/streptomycin. […] Following a 5-minute incubation, light emission is measured on a Packard Topcount Luminometer (Packard Instrument Co., Downers Grove, Ill.). […]

Substance | EC50 (human EPO-R) [nM] | EC90 [1] [nM] | IC50 (recombinant EPO-R) [nM] | EC50 [2] [nM]
I: Ac-GGLYACH[hSer](Me)GPIT[1Nal]VCQPLR[Sar][ξK]-{NH(CH2CH2O)2CH2CH2NH2} / II: Ac-GGLYACH[hSer](Me)GPIT[1Nal]VCQPLR[Sar] (disulfide I:6-I:15, II:6-II:15; amide I:21-II:C) [AF35149] | 0.057 | 2 | – | –
I: GGLYACHMGPIT[1Nal]VCQPLR[Sar]K-NH2 / II: GGLYACHMGPIT[1Nal]VCQPLR[Sar] (disulfide I:6-I:15, II:6-II:15; amide I:21-II:C) [AF34994] | 0.17 | 3.7 | – | –
I: GGLYACH[hSer](Me)GPIT[1Nal]VCQPLRGK-NH2 / II: GGLYACH[hSer](Me)GPIT[1Nal]VCQPLRG (disulfide I:6-I:15, II:6-II:15; amide I:21-II:C) [AF32881] | – | 11 | – | –
I: GGLYACH[hSer](Me)GPITWVCQPLR[Sar]K-NH2 / II: GGLYACH[hSer](Me)GPITWVCQPLR[Sar] (disulfide I:6-I:15, II:6-II:15; amide I:21-II:C) [AF35090] | 0.19 | 3.7 | – | –
I: GGLYACHMGPITWVCQPLRGK-NH2 / II: GGLYACHMGPITWVCQPLRG (disulfide I:6-I:15, II:6-II:15; amide I:21-II:C) [AF32579] | 0.142 | 3 | 1.7 | –
I: Ac-GGLYACHMGPIT[1Nal]VCQPLR[Sar][ξK]-{NH(CH2CH2O)2CH2CH2NH2} / II: Ac-GGLYACHMGPIT[1Nal]VCQPLR[Sar] (disulfide I:6-I:15, II:6-II:15; amide I:21-II:C) [AF35525] | 0.057 | 3 | – | –
I: Ac-GGLYACHMGPITWVCQPLRGK[Ahx][Ahx] / II: Ac-GGLYACHMGPITWVCQPLRG (disulfide I:6-I:15, II:6-II:15; amide I:21-II:C; N-terminus assumed) [AF34753] | – | 1.2 | – | –
GGLYACHMGPMT(1-nal)VCQPLRG (GGLYACHMGPMT[1Nal]VCQPLRG; cysteine pairing not given here) [AF31748] | – | – | – | 40
I: Ac-GGLYACH[hSer](Me)GPIT[1Nal]VCQPLRGK[Ahx][Ahx] / II: Ac-GGLYACH[hSer](Me)GPIT[1Nal]VCQPLRG (disulfide I:6-I:15, II:6-II:15; amide I:21-II:C; N-terminus assumed) [AF35179] | – | 3.7 | – | –
GGLYACHMGPMTVCQPLRG [AF31552] | – | – | – | 100
